No end group written: not given here.
Columns and labels:
S. aureus (NCTC 6538) = test: MIC/MBC broth dilution assay; format: cell-based, Staphylococcus aureus; settings: 37 °C overnight, nine replicates from three independent experiments; for MBC: sub-culture of inhibited cultures on MHA; for MIC: broth dilution, Mueller–Hinton broth, 5 × 10^5 CFU/mL, OD 550 nm
Experimental: (§1) The minimal inhibitory concentration assay (MIC) and minimum bactericidal concentration assay (MBC) of the peptide were carried out using the broth dilution method. Seven microbes, including the Gram-positive bacteria, S. aureus (NCTC 6538), MRSA, (ATCC 12493) and Enterococcus faecalis (E. faecalis) (NCTC 12697); Gram-negative bacteria, E. coli (ATCC 8739), Klebsiella pneumoniae (K. pneumoniae) (ATCC 43816) and Pseudomonas aeruginosa (P. aeruginosa) (ATCC 9027); and a yeast, C. albicans (ATCC 10231), were used in these assays and incubated with peptide at 37 °C overnight. The growth culture media were Yeast Extract Peptone Dextrose for C. albicans and Mueller–Hinton broth for others. The concentration of microbes was detected by measuring OD values through the use of a UV spectrophotometer set to 550 nm. C. albicans assays required 10^6 colony forming units (CFU)/mL, while others were incubated with 10^8 CFU/mL and verified by viable cell counts. All of the inocula were diluted to final concentrations of 5 × 10^5 CFU/mL. The concentration of peptides ranged from 1 µM to 512 µM (C = 1, 2, 4, 8, 16, 32, 64, 128, 256, 512 µM). Two mg/mL of amphotericin B for C. albicans and 2 mg/mL norfloxacin for others were applied as positive controls, and 1% of dimethyl sulphoxide (DMSO) was applied as a vehicle control. The 96-well plates were analysed at 550 nm using an ELISA plate reader (Biolise BioTek EL808, Winooski, VT, USA).
(§2) After analysing the growth situation of microbial cultures from each concentration, 10 µL of the inhibited cultures (the peptide concentration ranges from MIC to maximum concentration) were selected to sub-culture onto the Mueller–Hinton agar (MHA) plates. The plates were incubated overnight at 37 °C. After incubation, the lowest concentration on the MHA plates with no bacterial growth was regarded as the MBC value.

MRSA (ATCC 12493) = test: MIC/MBC broth dilution assay; format: cell-based, methicillin-resistant Staphylococcus aureus; settings: 37 °C overnight, nine replicates from three independent experiments; for MBC: sub-culture on MHA; for MIC: broth dilution, Mueller–Hinton broth, 5 × 10^5 CFU/mL, OD 550 nm
Experimental: as §1, §2

E. faecalis (NCTC 12697) = test: MIC/MBC broth dilution assay; format: cell-based, Enterococcus faecalis; settings: 37 °C overnight, nine replicates from three independent experiments; for MIC: broth dilution, Mueller–Hinton broth, 5 × 10^5 CFU/mL, OD 550 nm; for MBC: sub-culture on MHA
Experimental: as §1, §2

E. coli (ATCC 8739) = test: MIC/MBC broth dilution assay; format: cell-based, Escherichia coli; settings: 37 °C overnight, nine replicates from three independent experiments; for MIC: broth dilution, Mueller–Hinton broth, 5 × 10^5 CFU/mL, OD 550 nm; for MBC: sub-culture on MHA
Experimental: as §1, §2

[1] = tested on: K. pneumoniae (ATCC 43816); test: MIC/MBC broth dilution assay; format: cell-based, Klebsiella pneumoniae; settings: 37 °C overnight, nine replicates from three independent experiments; for MIC: broth dilution, Mueller–Hinton broth, 5 × 10^5 CFU/mL, OD 550 nm
Experimental: as §1, §2

[2] = tested on: P. aeruginosa (ATCC 9027); test: MIC/MBC broth dilution assay; format: cell-based, Pseudomonas aeruginosa; settings: 37 °C overnight, nine replicates from three independent experiments; for MIC: broth dilution, Mueller–Hinton broth, 5 × 10^5 CFU/mL, OD 550 nm; for MBC: sub-culture on MHA
Experimental: as §1, §2

C. albicans (ATCC 10231) = test: MIC/MBC broth dilution assay; format: cell-based, Candida albicans; settings: 37 °C overnight, nine replicates from three independent experiments; for MIC: broth dilution, Yeast Extract Peptone Dextrose, 5 × 10^5 CFU/mL, OD 550 nm
Experimental: as §1, §2

S. aureus biofilm = test: Antibiofilm assay (MBIC/MBEC), crystal violet; format: cell-based, Staphylococcus aureus; settings: TSB, 595 nm, nine replicates from three independent experiments; for MBIC: S. aureus biofilm inhibition; for MBEC: S. aureus preformed 24 h biofilm, peptide 24 h at 37 °C
Experimental: (§3) The minimal biofilm inhibitory concentration assay (MBIC) and minimal biofilm eradication concentration assay (MBEC) were performed on each of the peptides using Gram-positive bacteria cultured in Tryptic Soy Broth (TSB, Sigma-Aldrich, St. Louis, MO, USA) and Gram-negative bacteria cultured in Luria-Bertani broth (LB, Thermo Fisher Scientific, Carlsbad, CA, USA). The seeding concentration in 96-well plates of bacterial suspension was the same as for the anti-bacterial assay, and a UV spectrophotometer set to 550 nm was used to detect OD values. Melittin was used as a positive control. For MBIC, peptide solution was mixed with bacterial suspension at first to test if it could inhibit the growth of biofilm. However, for minimal biofilm eradication (MBEC) assays, biofilm was formed in 96-well plates at 37 °C for 24 h after seeding bacteria; afterwards, it was washed by sterile PBS twice. Peptide solutions, prepared with culture broth, were added to […] the biofilms by incubating at 37 °C for 24 h. Both plates were washed by PBS twice and stained by 125 µL 0.1% crystal violet solution (Sigma-Aldrich, Gillingham, UK). The stain was dissolved in 150 µL 30% acetic acid (Sigma-Aldrich, Gillingham, UK). The absorbance values of 100 µL solution from each well, were analysed by using a Synergy HT plate reader (Biotech, Minneapolis, MN, USA) set at 595 nm.

MRSA biofilm = test: Antibiofilm assay (MBIC/MBEC), crystal violet; format: cell-based, methicillin-resistant Staphylococcus aureus; settings: TSB, 595 nm, nine replicates from three independent experiments; for MBIC: MRSA biofilm inhibition; for MBEC: MRSA preformed 24 h biofilm, peptide 24 h at 37 °C
Experimental: as §3

E. faecalis biofilm = test: Antibiofilm assay (MBIC/MBEC), crystal violet; format: cell-based, Enterococcus faecalis; settings: TSB, 595 nm, nine replicates from three independent experiments; for MBIC: E. faecalis biofilm inhibition; for MBEC: E. faecalis preformed 24 h biofilm, peptide 24 h at 37 °C
Experimental: as §3

E. coli biofilm = test: Antibiofilm assay (MBIC/MBEC), crystal violet; format: cell-based, Escherichia coli; settings: LB, 595 nm, nine replicates from three independent experiments; for MBIC: E. coli biofilm inhibition; for MBEC: E. coli preformed 24 h biofilm, peptide 24 h at 37 °C
Experimental: as §3

K. pneumoniae biofilm = test: Antibiofilm assay (MBIC/MBEC), crystal violet; format: cell-based, Klebsiella pneumoniae; settings: LB, 595 nm, nine replicates from three independent experiments; for MBIC: K. pneumoniae biofilm inhibition; for MBEC: K. pneumoniae preformed 24 h biofilm, peptide 24 h at 37 °C
Experimental: as §3

P. aeruginosa biofilm = test: Antibiofilm assay (MBIC/MBEC), crystal violet; format: cell-based, Pseudomonas aeruginosa; settings: LB, 595 nm, nine replicates from three independent experiments; for MBIC: P. aeruginosa biofilm inhibition; for MBEC: P. aeruginosa preformed 24 h biofilm, peptide 24 h at 37 °C
Experimental: as §3

horse erythrocytes = test: Haemolysis assay; format: cell-based; settings: 4% (v/v) defibrinated horse erythrocytes, 37 °C, 2 h, 550 nm; normalised to 1% Triton X-100; calculated from the haemolysis curve
Experimental: Defibrinated horse erythrocytes (TCS Biosciences Ltd., Buckingham, UK) were used in the haemolysis assay. Peptides, from 1 μM to 512 μM, were tested with a 4% (v/v) erythrocyte suspension and were incubated at 37 °C for 2 h, while 1% Triton X-100 (Sigma-Aldrich, St. Louis, MO, USA) was acted as a positive control and phosphate-buffered saline (PBS) was used as a negative control. The sample supernatants were analysed at 550 nm on an ELISA plate reader (Biolise BioTek EL808, Winooski, VT, USA).

Row | Compound | MBC (S. aureus (NCTC 6538)) | MBC (MRSA (ATCC 12493)) | MIC (E. faecalis (NCTC 12697)) | MIC (E. coli (ATCC 8739)) [µM] | MIC [1] [µM] | MIC [2] [µM] | MIC (C. albicans (ATCC 10231)) [µM] | MBIC (S. aureus biofilm) [µM] | MBEC (S. aureus biofilm) [µM] | MBIC (MRSA biofilm) [µM] | MBEC (MRSA biofilm) [µM] | MBIC (E. faecalis biofilm) [µM] | MBEC (E. faecalis biofilm) [µM] | MBIC (E. coli biofilm) | MBEC (E. coli biofilm) | MBIC (K. pneumoniae biofilm) | MBEC (K. pneumoniae biofilm) | MBIC (P. aeruginosa biofilm) | MBEC (P. aeruginosa biofilm) | HC50 (peptide concentration that caused 50% lysis of horse red blood cells) (horse erythrocytes) [µM] | also measured
1 | FLYIIGKLLSGLL-NH2 [VM-3Y] | 2/2 µM | 2/2 µM | 4 µM | >512 | >512 | >512 | >512 | 2 | 128 | 2 | 64 | 64 | > 512 | >512/>512 µM | >512/>512 µM | >512/>512 µM | >512/>512 µM | >512/>512 µM | >512/>512 µM | 211.2 | MBC (E. faecalis (NCTC 12697)): 4 µM
2 | CC[C@H](C)[C@H](NC(=O)CN)C(=O)NCC(=O)N[C@@H](C)C(=O)N[C@H](C(=O)N[C@@H](CC(C)C)C(=O)N[C@@H](CCCCN)C(=O)N[C@H](C(=O)N[C@@H](CC(C)C)C(=O)N[C@H](C(=O)N[C@H](C(=O)NCC(=O)N[C@@H](CC(C)C)C(=O)N1CCC[C@H]1C(=O)N[C@@H](C)C(=O)N[C@@H](CC(C)C)C(=O)N[C@H](C(=O)N[C@@H](CO)C(=O)N[C@@H](Cc1c[nH]c2ccccc12)C(=O)N[C@H](C(=O)N[C@@H](CCCCN)C(=O)N[C@@H](CCCNC(=N)N)C(=O)N[C@@H](CCCCN)C(=O)N[C@@H](CCCNC(=N)N)C(=O)N[C@@H](CCC(N)=O)C(=O)N[C@@H](CCC(N)=O)C(N)=O)[C@@H](C)CC)[C@@H](C)CC)[C@@H](C)O)[C@@H](C)O)C(C)C)C(C)C [Melittin, reference compound] |  |  |  |  |  |  |  | 4 |  | 8 |  | 8 |  | 32 µM |  | 128 µM |  | 64 µM |  |  | 
3 | FLWIIGKLLSGLL-NH2 [VM-3W] | 1 µM | 2 µM | 4 µM | >512 | >512 | >512 | >512 | 4 | 128 | 4 | 128 | 16 | > 512 | >512/>512 µM | >512/>512 µM | >512/>512 µM | >512/>512 µM | >512/>512 µM | >512/>512 µM | 9.682 | MIC (S. aureus (NCTC 6538)): 1 µM; MIC (MRSA (ATCC 12493)): 2 µM; MBC (E. faecalis (NCTC 12697)): 4 µM
4 | FLKIIGKLLSGLL-NH2 [VM-3K] | 1 µM | 2 µM | 2/2 µM | 8 | 32 | 16 | 32 | 2 | 32 | 2 | 64 | 4 | > 512 | 16 µM | > 512 µM | 64 µM | > 512 µM | 32 µM | > 512 µM | 11.2 | MIC (S. aureus (NCTC 6538)): 1 µM; MIC (MRSA (ATCC 12493)): 1 µM; MBC (E. coli (ATCC 8739)): 8 µM; MBC ([1]; sub-culture on MHA): 32 µM; MBC [2]: 16 µM; MBC (C. albicans (ATCC 10231); sub-culture on agar plates): 32 µM
5 | FLGIIGKLLSGLL-NH2 [VM-3G] | 1 µM | 2 µM | 4 µM | 64 | >512 | 128 | >512 | 2 | 32 | 2 | 32 | 8 | > 512 | 256 µM | > 512 µM | >512/>512 µM | >512/>512 µM | >512/>512 µM | >512/>512 µM | 9.686 | MIC (S. aureus (NCTC 6538)): 1 µM; MIC (MRSA (ATCC 12493)): 2 µM; MBC (E. faecalis (NCTC 12697)): 4 µM; MBC (E. coli (ATCC 8739)): 128 µM; MBC [2]: 128 µM

Source: PMC9495676, “Evaluation of the Antimicrobial Properties of a Natural Peptide from Vespa mandarinia Venom and Its Synthetic Analogues as a Possible Route to Defeat Drug-Resistant Microbes” (Biology, 2022)
